PubChem BioAssay AID330 (DTP/NCI, 2004)
Several values for one entry are separate records, joined by “and”; a condition that tells them apart may be missing. Equal values may be shown once. Toxic doses and inconclusive results are not listed.

Test system: P388 leukemia ip, CD2F1 mice, survival T/C
Experiment: NCI In Vivo Anticancer Drug Screen. Data for tumor model P388 Leukemia (intraperitoneal) in CD2F1 (CDF1) mice
Conditions: endpoint: median survival time, higher = longer survival
Summary of the method: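 Mice carrying the transplanted tumor received test compound or vehicle. Survival was recorded in each group, and the value is the treated-group measurement divided by that of the vehicle-treated control group.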

[1] = dose: 100.0 mg/kg/injection, schedule: Q01DX009 (ip), vehicle: saline
[2] = dose: 200.0 mg/kg/injection, schedule: Q01DX009 (ip), vehicle: saline
[3] = dose: 50.0 mg/kg/injection, schedule: Q01DX009 (ip), vehicle: saline
[4] = dose: 200.0 mg/kg/injection, schedule: Q01DX005 (ip), vehicle: Klucel (hydroxypropylcellulose) (HPC)
[5] = dose: 60.0 mg/kg/injection, schedule: Q01DX005 (ip), vehicle: Klucel (hydroxypropylcellulose) (HPC)

Structure (SMILES): Cc1nc(C(=O)O)cc(Cl)c1C
- T/C (dose: 12.5 mg/kg/injection, schedule: Q01DX009 (ip), vehicle: distilled water + Tween-80): 100 % of control
- T/C (dose: 25.0 mg/kg/injection, schedule: Q01DX009 (ip), vehicle: distilled water + Tween-80): 100 % of control
- T/C (dose: 50.0 mg/kg/injection, schedule: Q01DX009 (ip), vehicle: distilled water + Tween-80): 96 % of control
- T/C (dose: 100.0 mg/kg/injection, schedule: Q01DX009 (ip), vehicle: distilled water + Tween-80): 100 % of control
- T/C (dose: 200.0 mg/kg/injection, schedule: Q01DX009 (ip), vehicle: distilled water + Tween-80): 96 % of control

Structure (SMILES): CN1CCN=C1c1ccc(NC(=O)c2ccc(C(=O)Nc3ccc(C4=NCCN4C)cc3)cc2)cc1
- T/C (dose: 0.4 mg/kg/injection, schedule: Q01DX009 (ip), vehicle: saline with Tween-80): 108 % of control
- T/C (dose: 3.0 mg/kg/injection, schedule: Q01DX009 (ip), vehicle: saline with Tween-80): 150 % of control
- T/C (dose: 4.0 mg/kg/injection, schedule: Q01DX009 (ip), vehicle: saline): 166 % of control
- T/C (dose: 6.0 mg/kg/injection, schedule: Q01DX009 (ip), vehicle: saline with Tween-80): 204 % of control
- T/C (dose: 6.0 mg/kg/injection, schedule: Q01DX009 (ip), vehicle: saline): 187 % of control
- T/C (dose: 6.25 mg/kg/injection, schedule: Q04DX003 (ip), vehicle: saline with Tween-80): 118 % of control
- T/C (dose: 9.0 mg/kg/injection, schedule: Q01DX009 (ip), vehicle: saline): 191 % of control

Structure (SMILES): Cc1cccc(=O)n1CCC#N
- T/C [1]: 95 % of control
- T/C [2]: 100 % of control
- T/C (dose: 400.0 mg/kg/injection, schedule: Q01DX009 (ip), vehicle: saline): 100 % of control

Structure (SMILES): COC(=O)c1cn(C(C)=O)c(C)c1C(=O)OC
- T/C (dose: 100.0 mg/kg/injection, schedule: Q01DX001 (ip), vehicle: saline with Tween-80): 100 % of control
- T/C (dose: 200.0 mg/kg/injection, schedule: Q01DX001 (ip), vehicle: saline with Tween-80): 95 % of control
- T/C (dose: 400.0 mg/kg/injection, schedule: Q01DX001 (ip), vehicle: saline with Tween-80): 104 % of control

Structure (SMILES): CC(O)CCCC(C)O (stereo not drawn)
- T/C [3]: 102 % of control
- T/C [1]: 112 % of control
- T/C [2]: 109 % of control

Structure (SMILES): Cc1cccc(Nc2nc(C)nc3[nH]cc(-c4ccccc4)c23)c1
- T/C (dose: 6.25 mg/kg/injection, schedule: Q01DX005 (ip), vehicle: Klucel (hydroxypropylcellulose) (HPC)): 91 % of control
- T/C (dose: 12.5 mg/kg/injection, schedule: Q01DX005 (ip), vehicle: Klucel (hydroxypropylcellulose) (HPC)): 90 % of control
- T/C [4]: 88 % of control

Structure (SMILES): CN1CCC/C1=C\C(=O)c1ccco1
- T/C (dose: 15.0 mg/kg/injection, schedule: Q01DX005 (ip), vehicle: Klucel (hydroxypropylcellulose) (HPC)): 100 % of control
- T/C (dose: 30.0 mg/kg/injection, schedule: Q01DX005 (ip), vehicle: Klucel (hydroxypropylcellulose) (HPC)): 103 % of control
- T/C [5]: 109 % of control and 89 % of control

Structure (SMILES): CCOC(=O)/C(C(=N)c1nc(C)c(C(=O)OCC)c(C(N)=O)n1)=C(/C)O
- T/C (dose: 50.0 mg/kg/injection, schedule: Q01DX005 (ip), vehicle: Klucel (hydroxypropylcellulose) (HPC)): 113 % of control
- T/C (dose: 100.0 mg/kg/injection, schedule: Q01DX005 (ip), vehicle: Klucel (hydroxypropylcellulose) (HPC)): 102 % of control and 90 % of control
- T/C [4]: 90 % of control and 94 % of control

Structure (SMILES): CC1=C2C3OC(=O)C(C)C3CCC2(C)C=C(Cl)C1=O (stereo not drawn)
- T/C [5]: 111 % of control
- T/C (dose: 120.0 mg/kg/injection, schedule: Q01DX005 (ip), vehicle: Klucel (hydroxypropylcellulose) (HPC)): 98 % of control
- T/C (dose: 240.0 mg/kg/injection, schedule: Q01DX005 (ip), vehicle: Klucel (hydroxypropylcellulose) (HPC)): 101 % of control

Structure (SMILES): Nc1ccc2nc(N)sc2c1
- T/C [3]: 100 % of control
- T/C [1]: 93 % of control
- T/C [2]: 101 % of control

Structure (SMILES): COc1ccc(C2=NC(C)(C)CO2)cc1C
- T/C (dose: 50.0 mg/kg/injection, schedule: Q01DX005 (ip), vehicle: saline with Tween-80): 103 % of control
- T/C (dose: 100.0 mg/kg/injection, schedule: Q01DX005 (ip), vehicle: saline with Tween-80): 103 % of control
- T/C (dose: 200.0 mg/kg/injection, schedule: Q01DX005 (ip), vehicle: saline with Tween-80): 94 % of control

Structure (SMILES): Cc1ccc2c(=O)n(C)c(=O)n(C)c2n1
- T/C (dose: 12.5 mg/kg/injection, schedule: Q01DX009 (ip), vehicle: saline with Tween-80): 98 % of control
- T/C (dose: 25.0 mg/kg/injection, schedule: Q01DX009 (ip), vehicle: saline with Tween-80): 102 % of control
- T/C (dose: 50.0 mg/kg/injection, schedule: Q01DX009 (ip), vehicle: saline with Tween-80): 103 % of control
- T/C (dose: 100.0 mg/kg/injection, schedule: Q01DX009 (ip), vehicle: saline with Tween-80): 103 % of control
